# Source: PMC11995216, “End-to-End Backbone Cyclization Enhances Passive Permeability of bRo5 Oligomeric Depsipeptides with Nonlinear Size Dependence” (ACS Medicinal Chemistry Letters, 2025)
# Several values for one entry are separate records, joined by “and”; a condition that tells them apart may be missing. Equal values may be shown once. Read-outs that look alike come from different tables or passages of the source.
# What was measured:
# [1] = system: PAMPA; details: UV detection
# [2] = system: PAMPA
# [3] = system: PAMPA; remark: listed apart in the source
# [4] = system: PAMPA; details: calculated using Supplement Equation 1, UV detection
# [5] = system: PAMPA; remark: listed apart in the source
# [6] = system: PAMPA; remark: listed apart in the source
# [7] = PAMPA, permeability assay across an artificial membrane; details: for Acceptor Concentration, Ave: after incubation
# [8] = Acceptor Concentration (uM) – ELSD Detection / [row 1]
# [9] = Acceptor Concentration (uM) – ELSD Detection / [row 2]
# [10] = Acceptor Concentration (uM) – ELSD Detection / [row 3]
# [11] = Acceptor Concentration (uM) – ELSD Detection / [row 4]
# [12] = Acceptor Concentration (uM) – ELSD Detection / [row 5]
# [13] = Acceptor Concentration (uM) – ELSD Detection / [row 6]
# [14] = Acceptor Concentration (uM) – ELSD Detection / [row 7]
# [15] = Acceptor Concentration (uM) – ELSD Detection / [row 8]
# [16] = Acceptor Concentration (uM) – ELSD Detection / [row 9]
# [17] = Acceptor Concentration (uM) – ELSD Detection / [row 10]
# [18] = Acceptor Concentration (uM) – UV Detection / [row 1]
# [19] = Acceptor Concentration (uM) – UV Detection / [row 2]
# [20] = Acceptor Concentration (uM) – UV Detection / [row 4]
# [21] = Acceptor Concentration (uM) – UV Detection / [row 5]
# [22] = Acceptor Concentration (uM) – UV Detection / [row 6]
# [23] = Acceptor Concentration (uM) – UV Detection / [row 7]
# [24] = Acceptor Concentration (uM) – UV Detection / [row 8]
# [25] = Acceptor Concentration (uM) – UV Detection / [row 9]
# [26] = Acceptor Concentration (uM) – UV Detection / [row 10]
# [27] = Papp (x 10^-6 cm/s) – ELSD Detection / [row 2], ELSD Detection
# [28] = Papp (x 10^-6 cm/s) – ELSD Detection / [row 3], ELSD Detection
# [29] = Papp (x 10^-6 cm/s) – ELSD Detection / [row 4], ELSD Detection
# [30] = Papp (x 10^-6 cm/s) – ELSD Detection / [row 5], ELSD Detection
# [31] = Papp (x 10^-6 cm/s) – ELSD Detection / [row 6], ELSD Detection
# [32] = Papp (x 10^-6 cm/s) – ELSD Detection / [row 7], ELSD Detection
# [33] = Papp (x 10^-6 cm/s) – ELSD Detection / [row 8], ELSD Detection
# [34] = Papp (x 10^-6 cm/s) – ELSD Detection / [row 9], ELSD Detection
# [35] = Papp (x 10^-6 cm/s) – ELSD Detection / [row 10], ELSD Detection
# [36] = Papp (x 10^-6 cm/s) – UV Detection / [row 1], UV Detection
# [37] = Papp (x 10^-6 cm/s) – UV Detection / [row 2], UV Detection
# [38] = Papp (x 10^-6 cm/s) – UV Detection / [row 3], UV Detection
# [39] = Papp (x 10^-6 cm/s) – UV Detection / [row 4], UV Detection
# [40] = Papp (x 10^-6 cm/s) – UV Detection / [row 6], UV Detection
# [41] = Papp (x 10^-6 cm/s) – UV Detection / [row 7], UV Detection
# [42] = Papp (x 10^-6 cm/s) – UV Detection / [row 8], UV Detection
# [43] = Papp (x 10^-6 cm/s) – UV Detection / [row 9], UV Detection
# [44] = Papp (x 10^-6 cm/s) – UV Detection / [row 10], UV Detection
smiles,measurement,setting,value
CCCCC[C@@H]1OC(=O)[C@@H](C)N(C)C(=O)[C@H](CCCCC)OC(=O)[C@@H](C)N(C)C(=O)[C@H](CCCCC)OC(=O)[C@@H](C)N(C)C(=O)[C@H](CCCCC)OC(=O)[C@@H](C)N(C)C(=O)[C@H](CCCCC)OC(=O)[C@@H](C)N(C)C1=O [Compound C1.5],% recovery,"[1]; Well 2 / %R, Well 2",86% and 90%
same,% recovery,"[1]; Well 3 / %R, Well 3",93% and 88%
same,% recovery,"[1]; Well 5 / %R, Well 5",88% and 87%
same,acceptor concentration after incubation,[2]; Well 5 / [acc],61.8 µM
same,Acceptor Concentration,[3]; [8],67.5 µM
same,Acceptor Concentration,[3]; [9],63.9 µM
same,Acceptor Concentration,[3]; [10],64.8 µM
same,Acceptor Concentration,[3]; [11],62.3 µM
same,Acceptor Concentration,[3]; [12],65.1 µM
same,Acceptor Concentration,[3]; [13],65 µM
same,Acceptor Concentration,[3]; [14],68.5 µM
same,Acceptor Concentration,[3]; [15],67.7 µM
same,Acceptor Concentration,[3]; [16],61.3 µM
same,Acceptor Concentration,[3]; [17],66.1 µM
same,Acceptor Concentration,[3]; [18],66.6 µM
same,Acceptor Concentration,[3]; [19],60.4 µM
same,Acceptor Concentration,[3]; [20],56.7 µM
same,Acceptor Concentration,[3]; [21],61.9 µM
same,Acceptor Concentration,[3]; [22],71.3 µM
same,Acceptor Concentration,[3]; [23],64.8 µM
same,Acceptor Concentration,[3]; [24],71.7 µM
same,Acceptor Concentration,[3]; [25],73.6 µM
same,Acceptor Concentration,[3]; [26],71.6 µM
same,%T,"[4]; Well 1 / %T, Well 1",0.44% and 0.46%
same,%T,"[4]; Well 2 / %T, Well 2",0.42% and 0.43%
same,%T,"[4]; Well 3 / %T, Well 3",0.42% and 0.47%
same,%T,"[4]; Well 4 / %T, Well 4",0.39% and 0.47%
same,%T,"[4]; Well 5 / %T, Well 5",0.42% and 0.47%
same,donor concentration after incubation,[5]; Well 1 / [donor],379 µM and 372 µM
same,donor concentration after incubation,[5]; Well 2 / [donor],370 µM and 384 µM
same,donor concentration after incubation,[5]; Well 3 / [donor],400 µM and 367 µM
same,donor concentration after incubation,[5]; Well 4 / [donor],389 µM and 372 µM
same,donor concentration after incubation,[5]; Well 5 / [donor],376 µM and 362 µM
same,Papp,[6]; [27],2.93 ×10⁻⁶ cm/s
same,Papp,[6]; [28],2.62 ×10⁻⁶ cm/s
same,Papp,[6]; [29],2.78 ×10⁻⁶ cm/s
same,Papp,[6]; [30],3.09 ×10⁻⁶ cm/s
same,Papp,[6]; [31],2.8 ×10⁻⁶ cm/s
same,Papp,[6]; [32],3.15 ×10⁻⁶ cm/s
same,Papp,[6]; [33],2.83 ×10⁻⁶ cm/s
same,Papp,[6]; [34],2.67 ×10⁻⁶ cm/s
same,Papp,[6]; [35],3.08 ×10⁻⁶ cm/s
same,Papp,[6]; [36],3.3 ×10⁻⁶ cm/s
same,Papp,[6]; [37],3.13 ×10⁻⁶ cm/s
same,Papp,[6]; [38],3.08 ×10⁻⁶ cm/s
same,Papp,[6]; [39],2.85 ×10⁻⁶ cm/s
same,Papp,"[6]; Papp (x 10^-6 cm/s) – UV Detection / [row 5], UV Detection",3.14 ×10⁻⁶ cm/s
same,Papp,[6]; [40],3.54 ×10⁻⁶ cm/s
same,Papp,[6]; [41],3.19 ×10⁻⁶ cm/s
same,Papp,[6]; [42],3.6 ×10⁻⁶ cm/s
same,Papp,[6]; [43],3.64 ×10⁻⁶ cm/s
same,Papp,[6]; [44],3.64 ×10⁻⁶ cm/s
CCCCC[C@@H]1OC(=O)[C@@H](C)N(C)C(=O)[C@H](CCCCC)OC(=O)[C@@H](C)N(C)C(=O)[C@H](CCCCC)OC(=O)[C@@H](C)N(C)C(=O)[C@H](CCCCC)OC(=O)[C@@H](C)N(C)C(=O)[C@H](CCCCC)OC(=O)[C@@H](C)N(C)C(=O)[C@H](CCCCC)OC(=O)[C@@H](C)N(C)C1=O [Compound C1.6],% recovery,"[1]; Well 1 / %R, Well 1",89% and 86%
same,% recovery,"[1]; Well 2 / %R, Well 2",88% and 97%
same,% recovery,"[1]; Well 3 / %R, Well 3",80% and 98%
same,% recovery,"[1]; Well 4 / %R, Well 4",82% and 97%
same,% recovery,"[1]; Well 5 / %R, Well 5",89% and 91%
same,Diffusion (%),"[7]; PAMPA percent diffusion, C0 500 uM",6.78% and 7% and 6.8 ± 1.7%
same,Recovery (%),"[7]; PAMPA, (acceptor + donor)/total analyte, C0 500 uM",90%
same,Papp at 500 uM,"[7]; PAMPA, Ave, ELSD detection, C0 500 uM",1.9 ×10⁻⁶ cm/s
same,Papp at 500 uM,"[7]; PAMPA, ratio-based method, mean ± SD, C0 500 uM, UV detection",2 ± 0.23 ×10⁻⁶ cm/s
same,recovery at 500 uM,"[7]; PAMPA, Recovery (%), PAMPA, (acceptor + donor)/total analyte, C0 500 uM",89.7%
same,"Acceptor Concentration, Ave","[7]; PAMPA, ELSD detection, C0 500 uM",33.9 µM
same,"Acceptor Concentration, Ave","[7]; PAMPA, UV detection, C0 500 uM",39.95 µM
same,Δ % diffusion,[7]; increase: difference between percent diffusion of macrocycle vs linear counterpart,↑2%
same,acceptor concentration after incubation,[2]; Well 1 / [acc],38.6 µM and 51.1 µM
same,acceptor concentration after incubation,[2]; Well 2 / [acc],37.6 µM and 41.4 µM
same,acceptor concentration after incubation,[2]; Well 3 / [acc],41.9 µM
same,acceptor concentration after incubation,[2]; Well 4 / [acc],31.6 µM and 49.1 µM
same,acceptor concentration after incubation,[2]; Well 5 / [acc],37.4 µM
same,Acceptor Concentration,[3]; [8],27.2 µM
same,Acceptor Concentration,[3]; [9],30 µM
same,Acceptor Concentration,[3]; [10],25.6 µM
same,Acceptor Concentration,[3]; [11],29.3 µM
same,Acceptor Concentration,[3]; [12],27.1 µM
same,Acceptor Concentration,[3]; [13],45.6 µM
same,Acceptor Concentration,[3]; [14],39.3 µM
same,Acceptor Concentration,[3]; [15],42.2 µM
same,Acceptor Concentration,[3]; [16],25.8 µM
same,Acceptor Concentration,[3]; [17],46.7 µM
same,Acceptor Concentration,[3]; [18],38.6 µM
same,Acceptor Concentration,[3]; [19],37.6 µM
same,Acceptor Concentration,[3]; Acceptor Concentration (uM) – UV Detection / [row 3],33.9 µM
same,Acceptor Concentration,[3]; [20],31.6 µM
same,Acceptor Concentration,[3]; [21],37 µM
same,Acceptor Concentration,[3]; [22],51.1 µM
same,Acceptor Concentration,[3]; [23],41.4 µM
same,Acceptor Concentration,[3]; [24],41.9 µM
same,Acceptor Concentration,[3]; [25],49 µM
same,Acceptor Concentration,[3]; [26],37.4 µM
same,%T,"[4]; Well 1 / %T, Well 1",0.63% and 0.58%
same,%T,"[4]; Well 2 / %T, Well 2",0.65% and 0.63%
same,%T,"[4]; Well 3 / %T, Well 3",0.63% and 0.59%
same,%T,"[4]; Well 4 / %T, Well 4",0.66% and 0.6%
same,%T,"[4]; Well 5 / %T, Well 5",0.62% and 0.63%
same,donor concentration after incubation,[5]; Well 1 / [donor],407 µM and 377 µM
same,donor concentration after incubation,[5]; Well 2 / [donor],404 µM and 445 µM
same,donor concentration after incubation,[5]; Well 3 / [donor],368 µM and 446 µM
same,donor concentration after incubation,[5]; Well 4 / [donor],379 µM and 438 µM
same,donor concentration after incubation,[5]; Well 5 / [donor],406 µM and 417 µM
same,Papp,[6]; [27],1.94 ×10⁻⁶ cm/s
same,Papp,[6]; [28],1.99 ×10⁻⁶ cm/s
same,Papp,[6]; [29],1.87 ×10⁻⁶ cm/s
same,Papp,[6]; [30],1.89 ×10⁻⁶ cm/s
same,Papp,[6]; [31],1.93 ×10⁻⁶ cm/s
same,Papp,[6]; [32],1.88 ×10⁻⁶ cm/s
same,Papp,[6]; [33],1.91 ×10⁻⁶ cm/s
same,Papp,[6]; [34],1.8 ×10⁻⁶ cm/s
same,Papp,[6]; [35],1.92 ×10⁻⁶ cm/s
same,Papp,[6]; [36],1.95 ×10⁻⁶ cm/s
same,Papp,[6]; [37],1.93 ×10⁻⁶ cm/s
same,Papp,[6]; [38],1.95 ×10⁻⁶ cm/s
same,Papp,[6]; [39],1.81 ×10⁻⁶ cm/s
same,Papp,[6]; [40],2.59 ×10⁻⁶ cm/s
same,Papp,[6]; [41],1.89 ×10⁻⁶ cm/s
same,Papp,[6]; [42],1.91 ×10⁻⁶ cm/s
same,Papp,[6]; [43],2.19 ×10⁻⁶ cm/s
same,Papp,[6]; [44],1.87 ×10⁻⁶ cm/s
